From ChEMBL document CHEMBL4371069, “Click chemistry for improvement in selectivity of quinazoline-based kinase inhibitors for mutant epidermal growth factor receptors” (Bioorg Med Chem Lett, 2019)

Experiments:
[1] = tested on: A549; experiment: Antiproliferative activity against human A549 cells harboring wild-type EGFR after 72 hrs by EZ-Cytox assay; format: ADME, cell-based; conditions: A549, 72 h
[2] = target: CYP2D6 (Homo sapiens, UniProt P10635); experiment: Inhibition of CYP2D6 in human liver microsomes assessed as residual activity at 10 uM using dextromethorphan as substrate preincubated for 5 mins followed by NADPH addition and measured after 15 mins by LC-MS/MS analysis relative to control; format: ADME; conditions: probe dextromethorphan, read-out: Activity
Sequence of CYP2D6 (P10635 whole entry): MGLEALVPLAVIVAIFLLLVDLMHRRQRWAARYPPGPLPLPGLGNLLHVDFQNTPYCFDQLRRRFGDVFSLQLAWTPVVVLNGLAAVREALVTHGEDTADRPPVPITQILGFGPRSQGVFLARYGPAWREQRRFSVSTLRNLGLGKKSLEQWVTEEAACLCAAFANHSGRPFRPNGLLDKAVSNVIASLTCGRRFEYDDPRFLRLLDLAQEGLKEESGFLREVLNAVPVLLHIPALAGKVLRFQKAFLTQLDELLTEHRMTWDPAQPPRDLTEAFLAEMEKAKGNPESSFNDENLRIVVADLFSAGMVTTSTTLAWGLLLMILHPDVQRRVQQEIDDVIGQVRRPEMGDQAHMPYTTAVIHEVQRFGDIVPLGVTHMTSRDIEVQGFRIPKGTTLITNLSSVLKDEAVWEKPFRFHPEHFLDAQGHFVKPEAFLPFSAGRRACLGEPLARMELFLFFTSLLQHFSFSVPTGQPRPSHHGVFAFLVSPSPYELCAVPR

[3] = target: T1, CYP2C8 (Homo sapiens, UniProt P10632); experiment: Inhibition of CYP2C8 in human liver microsomes assessed as residual activity at 10 uM using amiodiaquine as substrate preincubated for 5 mins followed by NADPH addition and measured after 15 mins by LC-MS/MS analysis relative to control; format: ADME; conditions: probe amiodiaquine, read-out: Activity
T1 sequence (P10632 whole entry): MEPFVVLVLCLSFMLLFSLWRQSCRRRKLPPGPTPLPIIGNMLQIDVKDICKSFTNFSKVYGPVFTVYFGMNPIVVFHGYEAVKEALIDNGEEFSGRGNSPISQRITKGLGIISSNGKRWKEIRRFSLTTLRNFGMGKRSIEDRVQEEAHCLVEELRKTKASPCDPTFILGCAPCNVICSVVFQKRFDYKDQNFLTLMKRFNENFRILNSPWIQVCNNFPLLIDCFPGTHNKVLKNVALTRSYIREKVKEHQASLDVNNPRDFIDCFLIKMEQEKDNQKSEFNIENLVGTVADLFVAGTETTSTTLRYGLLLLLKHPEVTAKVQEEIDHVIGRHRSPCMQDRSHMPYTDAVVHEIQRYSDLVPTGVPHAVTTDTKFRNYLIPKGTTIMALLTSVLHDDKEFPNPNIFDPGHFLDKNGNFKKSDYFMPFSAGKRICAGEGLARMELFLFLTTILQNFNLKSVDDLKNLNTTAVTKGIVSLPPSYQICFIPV

[4] = Selectivity index, ratio of IC50 for human C-terminal His6-tagged ERBB2 (676 to end residues) expressed in baculovirus infected sf21 cells to IC50 for human N-terminal GST-tagged EGFR T790M/L858R double mutant (696 to end residues) expressed in baculovirus infected sf21 cells
[5] = tested on: Epidermal growth factor receptor (Homo sapiens), P00533 [L858R,T790M]; experiment: Potency index, ratio of afatinib IC50 to compound IC50 for inhibition of human N-terminal GST-tagged EGFR T790M/L858R double mutant (696 to end residues) expressed in baculovirus infected sf21 cells
[6] = target: T2, CYP1A2 (Homo sapiens, UniProt P05177); experiment: Inhibition of CYP1A2 in human liver microsomes assessed as residual activity at 10 uM using phenacetin as substrate preincubated for 5 mins followed by NADPH addition and measured after 15 mins by LC-MS/MS analysis relative to control; format: ADME; conditions: probe phenacetin, read-out: Activity
T2 sequence (P05177 whole entry): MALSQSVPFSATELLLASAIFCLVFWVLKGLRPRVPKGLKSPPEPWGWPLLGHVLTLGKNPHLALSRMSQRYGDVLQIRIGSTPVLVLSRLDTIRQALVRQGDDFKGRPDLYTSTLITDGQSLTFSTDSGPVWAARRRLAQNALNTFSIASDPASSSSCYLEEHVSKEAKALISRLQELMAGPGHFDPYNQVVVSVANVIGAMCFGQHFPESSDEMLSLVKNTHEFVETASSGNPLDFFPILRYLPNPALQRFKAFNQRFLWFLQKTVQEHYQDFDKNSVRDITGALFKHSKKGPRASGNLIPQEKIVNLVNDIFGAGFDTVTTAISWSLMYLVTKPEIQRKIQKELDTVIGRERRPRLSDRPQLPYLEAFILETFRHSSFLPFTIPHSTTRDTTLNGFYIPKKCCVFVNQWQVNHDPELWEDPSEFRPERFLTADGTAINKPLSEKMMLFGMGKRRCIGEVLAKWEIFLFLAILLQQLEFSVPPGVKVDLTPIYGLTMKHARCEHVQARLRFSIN

[7] = Selectivity index, ratio of IC50 for human N-terminal GST-tagged EGFR kinase domain (696 to end residues) expressed in baculovirus infected sf21 cells to IC50 for human N-terminal GST-tagged EGFR T790M/L858R double mutant (696 to end residues) expressed in baculovirus infected sf21 cells
[8] = tested on: PC-9; experiment: Potency index, ratio of gefitinib IC50 to compound IC50 for antiproliferative activity against human PC9 cells harboring EGFR exon-19 del mutant; format: functional

SMILES	IC50 [1] [µM]	activity at 0.25 h, 10 µM [2] [%]	activity at 0.25 h, 10 µM [3] [%]	Ratio IC50 [4]	Ratio IC50 [5]	activity at 0.25 h, 10 µM [6] [%]	Ratio IC50 [7]	Ratio IC50 [8]
C=CC(=O)Nc1cc2c(Nc3ccc(F)c(Cl)c3)ncnc2cc1OCc1cn(Cc2cccc(F)c2)nn1	5.5	14.9	35.6	52	3.5	52.5	17	6.7
C=CC(=O)Nc1cc2c(Nc3ccc(F)c(Cl)c3)ncnc2cc1OCc1cn(Cc2ccc(Cl)cc2)nn1	2.04	24.4	48.7			60.8		
C=CC(=O)Nc1cc2c(Nc3ccc(F)c(Cl)c3)ncnc2cc1OCc1cn(Cc2ccc(F)cc2)nn1	4.31	12.2	36.4			51.1		
